Test results taken from US20250179047A1, “5-[7-(3,4-DIHYDRO-1H-ISOQUINOLINE-2-CARBONYL)-1,2,3,4 TETRAHYDROISOQUINOLIN-6-YL]-1H-PYRROLE-3-CARBOXAMIDE DERIVATIVES, PHARMACEUTICAL COMPOSITIONS CONTAINING THEM AND THEIR USES AS PRO-APOPTOTIC AGENTS” (LES LABORATOIRES SERVIER, priority 2022, published 2025).

Key:
KMS12PE Bcl2 D103V = experiment: In vitro cytotoxicity CellTiterGlo 72 h, KMS12PE Bcl2 D103V; assay type: cell-based; conditions: Homo sapiens, KMS-12-PE, read-out: C50 nM, KMS12PE Bcl2 D103V
Experimental: (§1) KMS-12-PE (ACC 606) were purchased from the Leibniz-Institute DSMZ (Braunschweig, Germany) and were grown at 37° C. in a humidified atmosphere with 5% CO2 in media recommended by the suppliers. Lentiviral particles containing Bcl-2 wild type (also named “Bcl2 WT”), Bcl-2 mutated on G101V (also named “Bcl2 G101V”), Bcl-2 mutated on D103Y (also named “Bcl2 D103Y”), Bcl-2 mutated on D103V (also named “Bcl2 D103V”), Bcl-2 mutated on D103E (also named “Bcl2 D103E”), Bcl-2 mutated on F104I (also named “Bcl2 F104I”), Bcl-2 mutated on F104L (also named “Bcl2 F104L”), Bcl-2 mutated on D111A (also named “Bcl2 D111A”), Bcl-2 mutated on A113G (also named “Bcl2 A113G”), Bcl-2 mutated on R129L (also named “Bcl2 R129L”), Bcl-2 mutated on V156D (also named “Bcl2 V156D”) were cloned into pcLV-CMV-DEST-IRES-TagRFP. Lentiviral particles (1×10^6) were mixed with Polybrene at 8 μg/ml and transduced by spinoculation for 1 h at 32° C. and incubated overnight. After 8 days, TagRFP positive-cells were sorted by FACS. BCL2 expression was monitored by immunoblotting using anti-Flag and anti-BCL2 antibodies. Cells were seeded into 96-wells plates and treated with 1:3.16 serial dilution of compounds (9 different concentrations). Cell viability was assessed using CellTiterGlo reagent following treatment for 72 h. Results were normalized to the viability of cells without compounds (control wells). The C50 values were calculated using nonlinear regression algorithms in XCell software.

KMS12PE Bcl2 F104L = experiment: In vitro cytotoxicity CellTiterGlo 72 h, KMS12PE Bcl2 F104L; assay type: cell-based; conditions: Homo sapiens, KMS-12-PE, read-out: C50 nM, KMS12PE Bcl2 F104L
Experimental: as §1

KMS12PE Bcl2 F104I = experiment: In vitro cytotoxicity CellTiterGlo 72 h, KMS12PE Bcl2 F104I; assay type: cell-based; conditions: Homo sapiens, KMS-12-PE, read-out: C50 nM, KMS12PE Bcl2 F104I
Experimental: as §1

BCL2 D111A = BCL2 D111A (Homo sapiens, UniProt P10415, D111A); experiment: TR-FRET competitive binding assay, BCL2 D111A; conditions: Ki determined from IC50, read-out: TR_FRET EKI_Bcl2 D111A
In short: (§2)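 Competitive TR-FRET displacement of fluorescein-PUMA peptide (2 or 20 nM) from 0.5 nM terbium-labelled N-terminal Halo-fusion BCL2 (1-207, wild type or mutant) or BCLXL (2-196), expressed in E. coli. Buffer 50 mM Hepes pH 7.5, 150 mM NaCl, 5% DMSO; 2 h at 23°C. 520/495 nm ratio fitted over 11 points for IC50, converted to Ki.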

BCL2 D103Y = BCL2 D103Y (Homo sapiens, UniProt P10415, D103Y); experiment: TR-FRET competitive binding assay, BCL2 D103Y; conditions: Ki determined from IC50, read-out: TR_FRET EKI_Bcl2 D103Y
In short: as §2

BCLXL WT = BCLXL WT (Homo sapiens (Human), UniProt Q07817); experiment: TR-FRET competitive binding assay, BCLXL WT; conditions: for Ki: BCLXL WT, Ki determined from IC50, read-out: TR_FRET EKI BclxL; for TR_FRET EKI BCLxL/WT selectivty ratio: ratio Ki BCLxL / Ki BCL2 WT
In short: as §2

KMS12PE Bcl2 D111A = experiment: In vitro cytotoxicity CellTiterGlo 72 h, KMS12PE Bcl2 D111A; assay type: cell-based; conditions: Homo sapiens, KMS-12-PE, read-out: C50 nM, KMS12PE Bcl2 D111A
Experimental: as §1

KMS12PE Bcl2 WT = experiment: In vitro cytotoxicity CellTiterGlo 72 h, KMS12PE Bcl2 WT; assay type: cell-based; conditions: Homo sapiens, KMS-12-PE, read-out: C50 nM, KMS12PE Bcl2 WT
Experimental: as §1

BCL2 WT = BCL2 WT (Homo sapiens (Human), UniProt P10415); experiment: TR-FRET competitive binding assay, BCL2 WT; conditions: Ki determined from IC50, read-out: TR_FRET EKI_Bcl2 WT
In short: as §2

Sequence of BCLXL WT (Q07817 other isoform, or with tags, fused parts or gaps): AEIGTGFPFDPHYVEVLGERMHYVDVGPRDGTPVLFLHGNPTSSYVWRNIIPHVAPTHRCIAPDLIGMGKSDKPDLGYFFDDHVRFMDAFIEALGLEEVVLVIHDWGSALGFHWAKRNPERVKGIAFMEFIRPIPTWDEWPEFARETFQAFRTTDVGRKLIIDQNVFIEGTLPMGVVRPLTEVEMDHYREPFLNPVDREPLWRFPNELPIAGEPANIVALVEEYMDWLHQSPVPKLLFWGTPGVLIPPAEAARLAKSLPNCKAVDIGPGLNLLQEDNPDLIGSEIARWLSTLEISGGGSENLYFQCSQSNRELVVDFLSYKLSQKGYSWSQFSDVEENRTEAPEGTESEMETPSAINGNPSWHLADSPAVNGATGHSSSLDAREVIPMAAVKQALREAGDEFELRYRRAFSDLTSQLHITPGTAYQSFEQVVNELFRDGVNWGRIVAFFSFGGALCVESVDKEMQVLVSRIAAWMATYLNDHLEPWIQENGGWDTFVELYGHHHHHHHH
Sequence of BCL2 WT (P10415 other isoform, or with tags, fused parts or gaps): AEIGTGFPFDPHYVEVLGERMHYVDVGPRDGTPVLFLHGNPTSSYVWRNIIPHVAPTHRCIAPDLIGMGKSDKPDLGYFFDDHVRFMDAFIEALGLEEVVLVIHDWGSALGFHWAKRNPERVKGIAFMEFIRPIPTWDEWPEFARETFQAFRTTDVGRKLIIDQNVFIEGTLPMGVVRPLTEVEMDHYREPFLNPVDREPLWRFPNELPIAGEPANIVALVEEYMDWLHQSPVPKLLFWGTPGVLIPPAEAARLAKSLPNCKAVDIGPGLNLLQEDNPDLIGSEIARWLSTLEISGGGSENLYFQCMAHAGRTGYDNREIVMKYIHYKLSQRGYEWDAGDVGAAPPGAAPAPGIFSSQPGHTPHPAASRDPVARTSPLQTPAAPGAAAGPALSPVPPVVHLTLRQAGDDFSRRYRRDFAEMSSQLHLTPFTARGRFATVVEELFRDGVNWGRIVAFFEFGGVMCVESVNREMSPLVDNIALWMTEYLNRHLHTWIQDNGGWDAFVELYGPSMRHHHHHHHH

| Compound | Ki (BCL2 D111A) [nM] | Ki (BCL2 D103Y) [nM] | Ki (BCLXL WT) [nM] | TR_FRET EKI BCLxL/WT selectivty ratio (BCLXL WT) | Ki (BCL2 WT) [nM] | IC50 (KMS12PE Bcl2 D103V) [nM] | IC50 (KMS12PE Bcl2 F104L) [nM] | IC50 (KMS12PE Bcl2 F104I) [nM] | IC50 (KMS12PE Bcl2 D111A) [nM] | IC50 (KMS12PE Bcl2 WT) [nM] |
| --- | --- | --- | --- | --- | --- | --- | --- | --- | --- | --- |
| Cc1c(N(C(=O)c2cc(-c3cc4c(cc3C(=O)N3Cc5ccccc5C[C@H]3C)CN(C(=O)Cc3ccc(OCCN5CCOCC5)cc3)CC4)n(C)c2C)c2ccc(O)cc2)cc(C#N)n1C [Example 21, N-(5-cyano-1,2-dimethyl-1H-pyrrol-3-yl)-N-(4-hydroxyphenyl)-1,2-dimethyl-5-{7-[(3R)-3-methyl-1,2,3,4-tetrahydroisoquinoline-2-carbonyl]-2-(2-{4-[2-(morpholin-4-yl)ethoxy]phenyl}acetyl)-1,2,3,4-tetrahydroisoquinolin-6-yl}-1H-pyrrole-3-carboxamide] | 0.19 | 0.35 | 1.1 | 10.0 | 0.11 | 3.34 | 15.8 | 45 | 1.27 | 2.56 |
| Cc1c(N(C(=O)c2cc(-c3cc4c(cc3C(=O)N3Cc5ccccc5C[C@H]3C)CN(C(=O)Cc3ccc(OCCC5CCOCC5)cc3)CC4)n(C)c2C)c2ccc(O)cc2)cc(C#N)n1C [Example 27, N-(5-cyano-1,2-dimethyl-1H-pyrrol-3-yl)-N-(4-hydroxyphenyl)-1,2-dimethyl-5-{7-[(3R)-3-methyl-1,2,3,4-tetrahydroisoquinoline-2-carbonyl]-2-(2-{4-[2-(oxan-4-yl)ethoxy]phenyl}acetyl)-1,2,3,4-tetrahydroisoquinolin-6-yl}-1H-pyrrole-3-carboxamide] | 1.67 | 0.73 | 10.1 | 12.6 | 0.8 | 1.55 | 5.51 | 29.1 | 0.86 | 1.53 |
| Cc1c(N(C(=O)c2cc(-c3cc4c(cc3C(=O)N3Cc5ccccc5C[C@H]3CN3CCCCC3)CN(C(=O)Cc3ccc(OCCN5CCOCC5)cc3F)CC4)n(C)c2C)c2ccc(O)cc2)cc(C#N)n1C [Example 43, N-(5-cyano-1,2-dimethylpyrrol-3-yl)-5-[2-(2-{2-fluoro-4-[2-(morpholin-4-yl)ethoxy]phenyl}acetyl)-7-{[(3S)-3-(piperidin-1-ylmethyl)-3,4-dihydro-1H-isoquinolin-2-yl]carbonyl}-3,4-dihydro-1H-isoquinolin-6-yl]-N-(4-hydroxyphenyl)-1,2-dimethylpyrrole-3-carboxamide] | 0.1 | 0.14 | 2.2 | 55.0 | 0.04 | 2 | 8.49 | 29.3 | 1.13 | 1.8 |
| Cc1c(N(C(=O)c2cc(-c3cc4c(cc3C(=O)N3Cc5ccccc5C[C@H]3C)CN(C(=O)Cc3ccc(N5CCN6CCOC[C@@H]6C5)cc3F)CC4)n(C)c2C)c2ccc(O)cc2)cc(C#N)n1C [Example 45, 5-[2-(2-{4-[(9aS)-octahydropyrazino[2,1-c][1,4]oxazin-8-yl]-2-fluorophenyl}acetyl)-7-[(3R)-3-methyl-1,2,3,4-tetrahydroisoquinoline-2-carbonyl]-1,2,3,4-tetrahydroisoquinolin-6-yl]-N-(5-cyano-1,2-dimethyl-1H-pyrrol-3-yl)-N-(4-hydroxyphenyl)-1,2-dimethyl-1H-pyrrole-3-carboxamide] | 0.19 | 0.15 | 2.5 | 31.6 | 0.08 | 2.7 | 22.5 | 114 | 2.05 | 3.3 |
| Cc1c(N(C(=O)c2cc(-c3cc4c(cc3C(=O)N3Cc5ccccc5C[C@H]3C)CN(C(=O)Cc3ccc(CCN5CCC(F)(F)CC5)cc3)CC4)n(C)c2C)c2ccc(O)cc2)cc(C#N)n1C [Example 51, N-(5-cyano-1,2-dimethylpyrrol-3-yl)-5-[2-(2-{4-[2-(4,4-difluoropiperidin-1-yl)ethyl]phenyl}acetyl)-7-{[(3R)-3-methyl-3,4-dihydro-1H-isoquinolin-2-yl]carbonyl}-3,4-dihydro-1H-isoquinolin-6-yl]-N-(4-hydroxyphenyl)-1,2-dimethylpyrrole-3-carboxamide] | 0.89 | 0.92 | 4.4 | 20.0 | 0.22 | 4.63 | 58.9 | 321 | 3.21 | 2.82 |

More lines, main results first:

| Ki (BCL2 D111A) [nM] | Ki (BCL2 D103Y) [nM] | Ki (BCLXL WT) [nM] | TR_FRET EKI BCLxL/WT selectivty ratio (BCLXL WT) | Ki (BCL2 WT) [nM] | Compound | IC50 (KMS12PE Bcl2 D103V) [nM] | IC50 (KMS12PE Bcl2 F104L) [nM] | IC50 (KMS12PE Bcl2 F104I) [nM] | IC50 (KMS12PE Bcl2 D111A) [nM] | IC50 (KMS12PE Bcl2 WT) [nM] |
| --- | --- | --- | --- | --- | --- | --- | --- | --- | --- | --- |
| 0.64 | 0.23 | 3 | 15.2 | 0.2 | COC[C@@H]1Cc2ccccc2CN1C(=O)c1cc2c(cc1-c1cc(C(=O)N(c3ccc(O)cc3)c3cc(C#N)n(C)c3C)c(C)n1C)CCN(C(=O)Cc1ccc(OCCC3CCOCC3)cc1F)C2 [Example 52, N-(5-cyano-1,2-dimethylpyrrol-3-yl)-5-[2-(2-{2-fluoro-4-[2-(oxan-4-yl)ethoxy]phenyl}acetyl)-7-{[(3S)-3-(methoxymethyl)-3,4-dihydro-1H-isoquinolin-2-yl]carbonyl}-3,4-dihydro-1H-isoquinolin-6-yl]-N-(4-hydroxyphenyl)-1,2-dimethylpyrrole-3-carboxamide] | 2.78 | 11.1 | 11.1 | 1.21 | 2.07 |
| 0.18 | 0.18 | 1.2 | 18.5 | 0.07 | Cc1c(N(C(=O)c2cc(-c3cc4c(cc3C(=O)N3Cc5ccccc5C[C@H]3C)CN(C(=O)Cc3ccc(OCCN5CCC(F)CC5)cc3)CC4)n(C)c2C)c2ccc(O)cc2)cc(C#N)n1C [Example 53, N-(5-cyano-1,2-dimethyl-1H-pyrrol-3-yl)-5-[2-(2-{4-[2-(4-fluoropiperidin-1-yl)ethoxy]phenyl}acetyl)-7-[(3R)-3-methyl-1,2,3,4-tetrahydroisoquinoline-2-carbonyl]-1,2,3,4-tetrahydroisoquinolin-6-yl]-N-(4-hydroxyphenyl)-1,2-dimethyl-1H-pyrrole-3-carboxamide] | 5.38 | 25.5 | 72.7 | 2.19 | 2.88 |
| 0.25 | 0.16 | 2.6 | 26.5 | 0.1 | Cc1c(N(C(=O)c2cc(-c3cc4c(cc3C(=O)N3Cc5ccccc5C[C@H]3C)CN(C(=O)Cc3ccc(OCCN5CCSCC5)cc3)CC4)n(C)c2C)c2ccc(O)cc2)cc(C#N)n1C [Example 55, N-(5-cyano-1,2-dimethyl-1H-pyrrol-3-yl)-N-(4-hydroxyphenyl)-1,2-dimethyl-5-{7-[(3R)-3-methyl-1,2,3,4-tetrahydroisoquinoline-2-carbonyl]-2-(2-{4-[2-(thiomorpholin-4-yl)ethoxy]phenyl}acetyl)-1,2,3,4-tetrahydroisoquinolin-6-yl}-1H-pyrrole-3-carboxamide] | 4.48 | 19.7 | 57.8 | 2.2 | 2.61 |
